These results are taken from patent publication US7524840B2, “7,8-disubstituted pyrazolobenzodiazepines” (Hoffmann-La Roche Inc., priority 2004, dated 2009).

The term IC50 denotes the concentration at which inhibition is half-maximal. What is called IC90 is the point of the concentration-response curve where the effect stands at 90%.

One assay has as its target T1, FGFR.
T1 construct: fused on or other part: GST tag
The assay can be described thus: FGFR kinase HTRF assay. The class given is biochemical. As to conditions: 1.5 nM activated FGFR, 10 μM ATP; read-out: Inhibition of FGFR IC50. How it is done: (§1) To determine inhibition of KDR and FGFR, kinase assays were conducted using an HTRF (Homogeneous Time Resolved Fluorescence) assay. This assay is described in A. J. Kolb et. al., Drug Discovery Today, 1998, 3(7), p 333.
FGFR activity assays were carried out as described above for the KDR activity assay with the following differences. GST-tagged FGFR enzyme was activated at room temperature for 1 hour in the following activation buffer: 100 mM HEPES, pH 7.4, 50 mM NaCl, 20 mM MgCl2, and 4 mM ATP. […] The rest of the assay was performed in the same manner as KDR assay.
(§2) Compound IC50 values were determined from duplicate sets of data, and calculated by using Excel and fitting data to equation Y=[(a−b)/{1+(X/c)^d]+b, where a and b are enzyme activity in the presence of no test inhibitor compound and an infinite amount of inhibitor test compound, respectively, c is the IC50 and d is the hill constant of the compound response. The IC50 value is the concentration of test compound that reduces by 50% the enzyme activity under the test conditions described.
For orientation: In TR-FRET formats the signal depends on donor and acceptor labels being close together.

The test system of another assay is H460a. The assay can be described thus: H460a cell-based MTT proliferation assay. As to conditions: 120 h, 5 days post addition of test compound, read-out: Antiproliferative Activity H460a Assay IC90. On the procedure: The H460a cell line was purchased from (ATCC; Rockville, Md.) and was grown in the medium recommended by ATCC. For analysis of the effect of the test compounds on growth of these cells, the cells were plated at 150 cells per well in a 96-well tissue culture plate, and were incubated overnight at 37° C. with 5% CO2. The next day, the test compounds were dissolved in 100% dimethyl sulfoxide (DMSO) to yield a 10 mM stock solution. Each compound was diluted with sterile medium to 1 mM in a sufficient quantity to yield a final concentration of 120 μM. The compounds were then serially diluted in medium with 1.2% DMSO. One-fourth final volume of the diluted compounds was transferred to 96 well plates. Test compounds were assayed in duplicate. […] The plates were returned to the incubator, and 5 days post addition of test compound, were analyzed as described below. […] Absorbencies were read in a microtiter plate reader (Molecular Dynamics) at a wavelength of 570 nm with a 650 nm reference. Percent inhibition was calculated by subtracting the absorbance of the blank (no cell) wells from all wells, then subtracting the division of the average absorbance of each test duplicate by the average of the controls from 1.00. Inhibitory concentrations (IC50) were determined from the linear regression of a plot of the logarithm of the concentration versus the percent inhibition.

In the next assay the target is T2, KDR (Homo sapiens, UniProt P35968).
T2 construct: EEE tag
In words: KDR kinase HTRF assay. The class given is biochemical. On the procedure: as §1
Prior to kinase reaction, recombinant EEE-tagged KDR was activated in the presence of activation buffer (50 mM HEPES, pH 7.4, 1 mM DTT, 10% glycerol, 150 mM NaCl, 0.1 mM EDTA, 26 mM MgCl2, and 4 mM ATP). The enzyme was incubated at 4° C. for 1 hour.
Kinase activity assays were performed in 96-well polypropylene plates (Falcon) with a total volume of 90 μL in each well. Each well contained 1 μM KDR substrate (Biotin-[…]), 1 nM activated KDR, and a test compound with one of 8 assay concentrations ranging from […] to […] (1:5 serial dilution). […] The reaction was incubated at 37° C. for 30 minutes. To stop the KDR reaction, 72 μL of reaction mixture was transferred into a STOP plate containing 18 μL of revelation buffer (20 mM EDTA, 50 mM HEPES, pH 7.4, 0.02% BSA, 10 nM Eu-labelled anti-pY antibody (final conc. 2 nM), and 100 nM streptavidin (final conc. 20 nM)). After mixing, 35 μL of solution was transferred into duplicate wells of a 384-well black plate (Costar), and read at 615/665 nm on a Wallac Victor 5 reader.
as §2

T2 sequence (P35968 20-1356, species assumed): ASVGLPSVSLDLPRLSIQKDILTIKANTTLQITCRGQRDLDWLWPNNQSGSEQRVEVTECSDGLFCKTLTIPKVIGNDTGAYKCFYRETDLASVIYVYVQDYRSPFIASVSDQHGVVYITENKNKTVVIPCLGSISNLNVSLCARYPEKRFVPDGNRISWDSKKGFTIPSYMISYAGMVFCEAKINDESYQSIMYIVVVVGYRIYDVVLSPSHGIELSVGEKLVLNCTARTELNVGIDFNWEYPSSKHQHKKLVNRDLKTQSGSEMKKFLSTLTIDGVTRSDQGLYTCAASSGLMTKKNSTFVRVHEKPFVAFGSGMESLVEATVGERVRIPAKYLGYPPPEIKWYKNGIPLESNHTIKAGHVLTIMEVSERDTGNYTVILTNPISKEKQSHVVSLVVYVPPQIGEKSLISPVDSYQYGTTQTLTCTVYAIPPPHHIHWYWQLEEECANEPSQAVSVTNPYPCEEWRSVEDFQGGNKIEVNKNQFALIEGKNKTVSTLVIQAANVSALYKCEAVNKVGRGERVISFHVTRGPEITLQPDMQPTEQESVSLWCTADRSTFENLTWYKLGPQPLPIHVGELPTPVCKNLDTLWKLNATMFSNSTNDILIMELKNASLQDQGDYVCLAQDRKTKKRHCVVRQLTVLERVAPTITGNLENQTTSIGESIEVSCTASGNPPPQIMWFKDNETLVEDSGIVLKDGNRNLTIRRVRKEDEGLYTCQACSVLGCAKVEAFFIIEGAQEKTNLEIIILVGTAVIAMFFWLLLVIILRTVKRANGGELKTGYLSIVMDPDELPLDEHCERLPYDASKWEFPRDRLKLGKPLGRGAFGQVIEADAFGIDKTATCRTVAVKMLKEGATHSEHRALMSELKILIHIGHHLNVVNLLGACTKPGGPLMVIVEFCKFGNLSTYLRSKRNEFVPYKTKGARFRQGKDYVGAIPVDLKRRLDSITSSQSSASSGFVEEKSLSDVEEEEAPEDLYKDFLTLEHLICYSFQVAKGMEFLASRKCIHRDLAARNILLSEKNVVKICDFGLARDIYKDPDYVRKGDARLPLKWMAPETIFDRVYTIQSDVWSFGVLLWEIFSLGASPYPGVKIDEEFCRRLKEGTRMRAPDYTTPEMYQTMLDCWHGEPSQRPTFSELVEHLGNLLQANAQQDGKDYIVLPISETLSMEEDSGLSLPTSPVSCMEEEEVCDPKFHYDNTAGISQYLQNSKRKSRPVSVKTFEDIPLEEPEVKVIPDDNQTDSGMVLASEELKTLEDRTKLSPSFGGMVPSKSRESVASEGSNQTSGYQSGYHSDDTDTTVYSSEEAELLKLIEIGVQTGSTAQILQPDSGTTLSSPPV

For `COc1cc2c(cc1F)C(c1ccccc1Cl)=Nc1c(n[nH]c1C)N2` [IVa, 5-(2-chlorophenyl)-1,2-dihydro-7-fluoro-8-methoxy-3-methyl-pyrazolo[3,4-b][1,4]benzodiazepine], the IC50 on FGFR turned out to be 28 nM; against KDR, 10 nM. Further, the 90% effect concentration (IC90) in the assay on H460a was 1570 nM.
